In patent publication US20250325547A1, “ANTI-SARS-COV-2 DRUG” (KAGOSHIMA UNIVERSITY, priority 2021, published 2025):
Where two headings read alike, the source gives them in different places.

Experiments:
Format in all cases: cell-based
[1] = system: SARS-CoV-2 Alpha strain (QK002)
[2] = system: SARS-CoV-2 Beta strain (TY8-612)
[3] = system: SARS-CoV-2 Gamma strain (TY7-501)
[4] = Alpha strain (QK002), CPE assay in Vero/TMPRSS2
[5] = Beta strain (TY8-612), CPE assay in Vero/TMPRSS2
[6] = Gamma strain (TY7-501), CPE assay in Vero/TMPRSS2

## CCN(Cc1cc(Nc2ncnc3ccccc23)cc(Cl)c1O)C(C)C [Compound 11]
[1]; [4]
  EC50: 3.8 µM
[2]; [5]
  EC50: 9.3 µM
[3]; [6]
  EC50: 5.4 µM

## CC(C)N(Cc1cc(Nc2ncnc3ccccc23)cc(Cl)c1O)C(C)C [Compound 15]
[1]; [4]
  EC50: 2.7 µM
[2]; [5]
  EC50: 6.8 µM
[3]; [6]
  EC50: 3.5 µM

## CCN(Cc1cc(Nc2ncnc3ccccc23)cc(Cl)c1O)C1CCCCC1 [Compound 19]
[1]
  EC50: 5.8 µM
[2]
  EC50: 8.6 µM
[3]
  EC50: 4.2 µM
